{"source": "patent US8148097B2", "about": "“Screening method for identification of compounds with calcium-independent phospholipase A2β (iPLA2β) modulating activity” (Washington University, priority 2005, dated 2012)", "molecular_target": "T1, iPLA2β (Cricetulus griseus, UniProt A0A3L7I2I8)", "T1 construct": "(His)6; made in house; host or cells: Sf9 insect cells (baculovirus)", "T1 sequence (A0A3L7I2I8 1-752 isoform A0A3L7I2I8-2)": "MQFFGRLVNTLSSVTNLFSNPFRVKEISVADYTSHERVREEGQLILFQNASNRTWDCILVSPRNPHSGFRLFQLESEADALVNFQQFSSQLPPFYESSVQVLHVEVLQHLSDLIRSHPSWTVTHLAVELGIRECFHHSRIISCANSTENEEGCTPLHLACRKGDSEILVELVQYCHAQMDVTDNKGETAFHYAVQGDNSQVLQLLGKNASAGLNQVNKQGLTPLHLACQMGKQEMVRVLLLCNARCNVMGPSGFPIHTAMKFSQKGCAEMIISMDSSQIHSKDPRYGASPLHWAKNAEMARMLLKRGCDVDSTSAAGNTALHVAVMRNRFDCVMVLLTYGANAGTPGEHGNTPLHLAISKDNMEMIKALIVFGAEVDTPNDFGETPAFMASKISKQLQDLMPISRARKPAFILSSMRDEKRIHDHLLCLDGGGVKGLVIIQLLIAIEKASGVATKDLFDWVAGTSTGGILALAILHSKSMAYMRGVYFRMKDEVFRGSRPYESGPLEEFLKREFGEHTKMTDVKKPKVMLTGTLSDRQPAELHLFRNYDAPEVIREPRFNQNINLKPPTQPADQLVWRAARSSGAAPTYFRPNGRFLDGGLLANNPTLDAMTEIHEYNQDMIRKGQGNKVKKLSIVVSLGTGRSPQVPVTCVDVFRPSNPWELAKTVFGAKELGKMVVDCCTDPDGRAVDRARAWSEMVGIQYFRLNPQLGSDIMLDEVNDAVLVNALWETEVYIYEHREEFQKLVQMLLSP", "test": "iPLA2β phospholipase A2 activity with radiolabeled POPC substrate", "type": "biochemical", "settings": "oleoyl-CoA 10 μM, [14C]-POPC substrate, FIG. 11I", "method": "FIG. 9—Calcium-independent iPLA2β was pre-incubated in the presence of Ca^2+ (1 mM) or Ca^2+-CaM (3 μg) on ice before addition to 95 μM POPC containing either 5 mol % [1-^14C]-POPC or [1-^14C]-palmitoyl-CoA in 100 mM Tris-HCl, pH 7.2. After incubation at 37° C. for 3 min, reactions were terminated by vortexing in the presence of butanol and released radiolabeled fatty acids were resolved by TLC and quantitated by liquid scintillation spectrometry as described in Experimental Procedures.\nFIGS. 11A-11D—Purified iPLA2β+/−Ca^2+/CaM was incubated with POPC/BODIPY-PC (95:5 mol %) host vesicles for 2 min at 37° C. with the indicated concentrations of guest oleoyl-CoA. Relative fluorescence was recorded utilizing 495 nm excitation and 515 nm emission wavelengths as described in Experimental Procedures. […] Radiolabeled fatty acid was extracted into butanol, resolved by TLC, and quantified by scintillation spectrometry as described in Experimental Procedures.\nPhospholipase A2 and Acyl-CoA Hydrolase Enzymatic Assays—Purified recombinant iPLA2β(His)6 (peptide disclosed as SEQ ID NO: 4) (0.1-1 μg) was incubated with radiolabeled phospholipid or acyl-CoA in 25 mM Tris-HCl, pH 7.2 containing 1 mM EGTA (200 μl final volume) for 1-2 mm at 37° C. […] Incorporation of acyl-CoA into the POPC/DOPS vesicles employed was determined as described previously (64). […]"}
{"smiles": "CCCCCCCC/C=C\\CCCCCCCC(=O)SCCNC(=O)CCNC(=O)[C@H](O)C(C)(C)COP(=O)(O)OP(=O)(O)OC[C@H]1O[C@@H](n2cnc3c(N)ncnc32)[C@H](O)[C@@H]1OP(=O)(O)O", "note": "[oleoyl-CoA]", "values": [{"measurement": "inhibition at 10 µM", "setting": "no CaM, read-out: inhibition of iPLA2β activity by oleoyl-CoA alone", "value": 20, "unit": "%"}, {"measurement": "activity of CaM-inhibited iPLA2β, % of the activity observed with oleoyl-CoA alone", "value": "approximately 75%"}]}
